Legend:
[1] = system: isolated PCA vessels (posterior cerebral artery of the rat); test: Dilation of isolated PCA vessels previously constricted with 5HT
From the text: FIG. 47 is a graph of HS-38 concentration versus percent dilation of isolated PCA vessels (posterior cerebral artery of the rat) previously constricted with 5HT.
ZIPK expression differences within different vascular beds may provide distinct pharmacology.

IRAK4 = target: T1, IRAK4 (Homo sapiens, UniProt Q9NWZ3); test: 33P-ATP filter-binding kinase assay
T1 sequence (Q9NWZ3 1-460): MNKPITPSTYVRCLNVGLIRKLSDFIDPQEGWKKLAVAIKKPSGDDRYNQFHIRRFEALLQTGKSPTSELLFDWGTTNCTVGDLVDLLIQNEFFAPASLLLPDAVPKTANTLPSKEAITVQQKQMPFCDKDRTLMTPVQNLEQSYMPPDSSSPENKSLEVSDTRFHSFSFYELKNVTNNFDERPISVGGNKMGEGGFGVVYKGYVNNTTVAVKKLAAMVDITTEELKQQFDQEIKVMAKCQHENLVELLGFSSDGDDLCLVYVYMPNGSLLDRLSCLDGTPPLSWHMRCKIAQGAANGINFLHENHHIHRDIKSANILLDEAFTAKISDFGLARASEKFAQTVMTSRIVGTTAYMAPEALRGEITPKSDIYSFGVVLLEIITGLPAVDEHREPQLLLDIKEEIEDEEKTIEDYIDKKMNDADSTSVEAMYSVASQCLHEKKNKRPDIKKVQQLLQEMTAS

RLC20 phosphorylation [2] = test: Western blot of RLC20 phosphorylation in Ca2+-sensitized rabbit ileum; conditions: HS38 50 μM
Description: To examine the effect of ZIPK inhibition on sensitized force, muscle strips were stimulated with an intermediate calcium concentration solution (pCa 6.5). Once force reached a plateau, strips were Ca^2+-sensitized by the addition of the agonist carbachol (5 μM). Up to 2 μM of GTP was added together with the sensitizing agonist to compensate for possible loss of GTP during permeabilization. At the plateau of Ca-sensitized force (5-10 min upon stimulation), the ZIPK inhibitor, HS38 (50 μM) or diluent (0.1% DMSO) was added and the force relaxation time course was recorded. Tissue samples were frozen 20 min after the addition of HS38 for biochemical assays of RLC20 and MYPT1 phosphorylation.
MYPT1 and RLC20 phosphorylation: To examine the phosphorylation of MYPT1 and RLC20, rabbit ileum SM strips were treated as described above and previously reported. (Gong et al. (1995), J. Physiol.-London 486, 113-122; Kitazawa et al. (1989) J. Biol. Chem. 264, 5339-5342; Kobayashi et al. (1991) Am. J. Physiol. 260, C364-C370), Following the stimulation protocols, muscle strips were immediately frozen by immersion in −80° C. acetone with trichloroacetic acid (10% w/v) and stored at −80° C. […] Phosphorylation of MYPT1 Thr696 and of RLC20 was determined by SDS-PAGE and Western blotting. […]

RLC20 phosphorylation [3] = test: RLC20 phosphorylation in serum-starved aortic smooth muscle cells; assay type: cell-based, mouse; conditions: 30 min
Description: A, Typical myograph force trace showing the effect of HS38 on intact mouse aorta contractility. The maximum contractile force of PE-induced contraction was reduced by approximately 30% when HS38 (10 μM) was added five minutes prior to PE addition and by approximately 40% when added ten minutes after PE addition. B, Serum-starved aortic SM cells were treated with SIP (0.25 μM) and HS-38 (±50 μM) for 30 min.
For Western blots, tissues and cultured cells were lysed in 1% SDS, NaCl (300 mM), Tris-HCl (50 mM, pH 7.5), subjected to SDS-PAGE, transferred to polyvinylidene difluoride membrane (Millipore) and visualized using the Odyssey System (Li-Cor). For Odyssey imaging, the membranes were blocked with Odyssey Blocking Buffer and then subjected to anti-MYPT1 (1:2,000) (BD Transduction), phospho-MYPT1 (Thr696) (1:1,000) (Millipore), RLC20 (1:2000) (Sigma) and phospho-RLC20 (1:1000) (Cell Signaling Technology) antibodies. Antibodies were diluted in appropriate blocking buffer. The membranes were washed in TBS with 0.05% Tween 20. Primary antibodies were visualized using secondary antibodies conjugated to Alexa 680 (Invitrogen) or IRDye800 (Li-Cor).
Cell Culture: Mouse aortic SM cells were prepared. The cell line was cultured in AmnioMax medium (Gibco) supplemented with 10% embryonic stem cell-qualified fetal bovine serum (Invitrogen) and penicillin-streptomycin (Invitrogen). […]

CC(Sc1nc2c(cnn2-c2cccc(Cl)c2)c(=O)[nH]1)C(N)=O (stereo not shown) [HS38]
dilation of vessels previously constricted with 5HT [1]: induced dilation | fold less potent than against DAPK1 and PIM3 (IRAK4): ~10 fold | IC50 (IRAK4; mean ± S.D., n = 2): 1400 ± 400 nM | activity at 10 µM (IRAK4; read-out: % Activity (10 μM HS38)): 20% | RLC20 phosphorylation level (RLC20 phosphorylation [2]): significantly reduced | RLC20 phosphorylation, basal (unstimulated) state (RLC20 phosphorylation [3]; 50 μM, p <0.0002, n=8): significantly decreased | RLC20 phosphorylation, S1P stimulated state (RLC20 phosphorylation [3]; S1P 0.25 μM, HS38 50 μM, p <0.004, n=8): significantly decreased

Source: patent US11999737B2, “Kinase inhibitors and related methods of use” (Duke University, priority 2014, dated 2024)
